This is an account of results in paper PMC12736018, “Stereoselective Cytotoxicity of Enantiopure 3,3-Dichloro-γ-lactams: Correlating In Vitro Activity with In Vivo Tolerability” (Molecules, 2025).

Data set [1] deals with 3T3 cells. The experiment in a line: MTT cell viability assay, 3T3. To be noted: Mus musculus, NIH3T3; 3T3, MTT, 24 h. In kind it is cell-based. Here is the method:
(§1) The murine Swiss albino fibroblast (3T3), the immortal human keratinocyte (HaCaT), the squamous cell carcinoma (A431), the human epithelial carcinoma (HeLa) and the human breast adenocarcinoma (MCF-7) cell lines were sourced from Celltec UB (Barcelona, Spain). All cells were maintained and grown in DMEM medium (4.5 g/L glucose) supplemented with 10% (v/v) FBS, 2 mM L-glutamine, 100 U/mL penicillin and 100 μg/mL streptomycin at 37 °C, 5% CO2. Cells were routinely cultured in 75 cm^2 culture flasks and were trypsinized using trypsin-EDTA when the cells reached approximately 80%. Cell concentration in the resulting suspension was assessed using the trypan blue assay, which enables direct discrimination between viable (unstained) and non-viable (blue) cells.
(§2) T3 and HaCaT cells (1 × 10^5 cells/mL), along with A431, HeLa, and MCF-7 cells (5 × 10^4 cells/mL), were cultured at defined seeding densities in the 60 central wells of a 96-well plate. Cells were first incubated for 24 h under standard incubator conditions (5% CO2, 37 °C). After this period, the culture medium was removed, and the cells were incubated for an additional 24 h with their corresponding compound solutions (1 mg/mL) previously diluted in a minimum amount of DMF (dimethylformamide) and then in DMEM medium supplemented with 5% FBS (100 µL) at the required concentration range (20 to 250 µg/mL). Cell viability following exposure to the lactam derivatives was evaluated using two complementary assays: NRU and MTT.
(§3) Only living cells can reduce the yellow tetrazolium salt 3-(4,5-dimethyl-2-thiazolyl)-2,5-diphenyltetrazolium bromide (MTT) to insoluble purple formazan crystals. After a 24 h incubation of the cells with their corresponding NPs, the medium was removed and 100 µL of MTT (Sigma-Aldrich, St. Louis, MO, USA) in PBS (5 mg/mL) diluted 1:10 in culture medium without phenol red and without FBS (Lonza, Verviers, Belgium) was added to the cells. After 3 h of incubation, the medium was removed. Thereafter, 100 µL of DMSO (Sigma-Aldrich, St. Louis, MO, USA) was added to each well to dissolve the purple formazan crystals. Agitation and absorbance measurements of the extracted solution were carried out under the same conditions described for the NRU assay. The effect of each treatment was then expressed as the percentage of tetrazolium salt reduction by viable cells relative to untreated controls.
(§4) The half-maximal inhibitory concentration (IC50) values for the different formulations, across cell lines and experimental endpoints, were obtained by fitting the concentration-dependent viability curves. […] These findings reflect the very low cytotoxicity of the compounds toward these cell lines.
(In general: Formazan colour is commonly taken as a measure of viable cells.)

Data set [2] has as its system HaCaT cells. The experiment in a line: MTT cell viability assay, HaCaT. In kind it is cell-based. To be noted: Homo sapiens, 24 h. As to the method: as §1, §2, §3, §4
Data set [3] deals with A431 cells. The experiment in a line: MTT cell viability assay, A431. Type of data set: cell-based. As to conditions: Homo sapiens, A-431, 24 h. As to the method:
as §1, §2, §3, §4

In data set [4] the test system is HeLa cells. Kind of data set: MTT cell viability assay, HeLa. As to conditions: Homo sapiens, 24 h. In kind it is cell-based. Here is the method: as §1, §2, §3, §4
Data set [5] deals with MCF-7 cells. The experiment in a line: MTT cell viability assay, MCF-7. In kind it is cell-based. As to conditions: Homo sapiens, MCF7; MCF-7, MTT, 24 h. Here is the method: as §1, §2, §3, §4
Data set [6] deals with 3T3 cells. The experiment in a line: NRU cell viability assay, 3T3. In kind it is cell-based. As to conditions: Mus musculus, NIH3T3; 3T3, NRU, 24 h. As to the method: as §1, §2
(§5) The neutral red uptake (NRU) assay is based on the accumulation of dye in the lysosomes of viable cells. After the cells were incubated for 24 h with the corresponding systems, the medium was removed, and the solutions were incubated with the NR dye (Sigma-Aldrich, St. Louis, MO, USA) solution (50 µg/mL) dissolved in the medium, without FBS and without phenol red (Lonza, Verviers, Belgium), for 3 h. Cells were then washed with sterile PBS, followed by the addition of 100 µL of a solution containing 50% absolute ethanol and 1% acetic acid in distilled water to extract the dye. To promote the total dissolution of the dye, plates were placed in a microtiter-plate shaker for 5 min at room temperature. The absorbance of the resulting solutions was measured at 550 nm (Bio-Rad 550 microplate reader, Bio-Rad California, Hercules, CA, USA). Finally, the effect of each treatment was calculated as the percentage of dye uptake by viable cells relative to the control cells (cells without any treatment). […]

Data set [7] concerns HaCaT cells. Kind of data set: NRU cell viability assay, HaCaT. Type of data set: cell-based. To be noted: Homo sapiens, 24 h. Here is the method:
as §1, §2, §5

In data set [8] the test system is A431 cells. Kind of data set: NRU cell viability assay, A431. Type of data set: cell-based, human. As to conditions: Homo sapiens, A-431, 24 h. Here is the method:
as §1, §2
The neutral red uptake (NRU) assay is based on the accumulation of dye in the lysosomes of viable cells. After the cells were incubated for 24 h with the corresponding systems, the medium was removed, and the solutions were incubated with the NR dye (Sigma-Aldrich, St. Louis, MO, USA) solution (50 µg/mL) dissolved in the medium, without FBS and without phenol red (Lonza, Verviers, Belgium), for 3 h. Cells were then washed with sterile PBS, followed by the addition of 100 µL of a solution containing 50% absolute ethanol and 1% acetic acid in distilled water to extract the dye. To promote the total dissolution of the dye, plates were placed in a microtiter-plate shaker for 5 min at room temperature. The absorbance of the resulting solutions was measured at 550 nm (Bio-Rad 550 microplate reader, Bio-Rad California, Hercules, CA, USA). Finally, the effect of each treatment was calculated as the percentage of dye uptake by viable cells relative to the control cells (cells without any treatment). Finally, the effect of each treatment was calculated as the percentage of dye retained by viable cells compared with untreated control cells.
as §4

In data set [9] the test system is zebrafish embryos. The experiment in a line: Touch-evoked response (TER) test. In kind it is in vivo. As to conditions: 72 hpf, after 2 h washout. As to the method:
Adult zebrafish, both male and female, were procured from a commercial supplier (Pisciber, Barcelona, Spain) and housed in a closed flow-through system with standardized dilution water, as specified in ISO 7346-1 [16] (2 mM CaCl2·2H2O; 0.5 mM MgSO4·7H2O; 0.75 mM NaHCO3; 0.07 mM KCl). The fish were maintained at a temperature of 26 ± 1 °C on a 14 h light and 10 h dark cycle and were daily fed in the morning with Artemia salina, and with commercial flake food in the afternoon (SDS400, Special Diet Services, Dietex, France). The day before eggs were needed, males and females were placed in a breeding tank with plants at a 2:1 male-to-female ratio. The following morning, eggs were collected 30 min after the lights were turned on. […]
At 72 hpf, test solutions were replaced with 0.3× Danieau’s solution without the chemical and incubated at 27 °C ± 1 °C for 2 h. […] In brief, videos were recorded using a Casio Exilim EX-ZR200 video camera (Tokyo, Japan) and the distance swam by zebrafish embryos was measured after three mechanical stimuli, applied to the tail with a forceps tip (Fine Science Tools, Dumont #5, Foster City, CA, USA) at 10 s intervals. […] Six larvae per concentration group were evaluated in at least three independent experiments.
Statistical analysis was performed using GraphPad Prism v.10.0.2. TER test was analyzed using one-way ANOVA and the post-hoc multiple-comparison Dunnett test. […]

By IC50 is commonly meant the concentration that gives 50% inhibition. A low value points to inhibition by little substance.

In brackets after ≈: the same amount, converted by molar mass. Where only a bound is given, the exact number is not on record here.

As to `C[C@@H]1CN([C@@H](C)c2ccccc2)C(=O)C1(Cl)Cl` [Compound 3, (R)-3,3-dichloro-4-methyl-1-((S)-1-phenylethyl)pyrrolidin-2-one], the IC50 stood at 30 µg/mL (≈ 110 µM) in data set [1]; 122 µg/mL (≈ 450 µM) in data set [2]; 56 µg/mL (≈ 206 µM) in data set [3]; 184 µg/mL (≈ 675 µM) in data set [4]; 193 µg/mL (≈ 708 µM) in data set [5]; 65 µg/mL (≈ 239 µM) in [6]. The IC50 in [7] was over 250 µg/mL; in data set [8], 60.2 µg/mL (≈ 221 µM). Also, the “concentration from which a statistically significant adverse effect was observed in the TER” value in data set [9] is at least 7800 ng/mL.
For `C[C@H](c1ccccc1)N1C[C@H](C)C(Cl)(Cl)C1=O` [Compound 4], the IC50 came to 94.6 µg/mL (≈ 348 µM) in [1]; 57.3 µg/mL (≈ 210 µM) in data set [2]; 164 µg/mL (≈ 604 µM) in data set [3]; 94.3 µg/mL (≈ 346 µM) in [4]; 77.8 µg/mL (≈ 286 µM) in data set [5]; 173 µg/mL (≈ 634 µM) in data set [6]. The IC50 in [7] was over 250 µg/mL; in data set [8] it was 108 µg/mL (≈ 396 µM). Moreover, in data set [9], the “concentration from which a statistically significant adverse effect was observed in the TER” value was at least 7800 ng/mL.
